These results are taken from patent US20160257697A1, “THIOPHENE-SUBSTITUTED TETRACYCLIC COMPOUNDS AND METHODS OFUSE THEREOF FOR THE TREATMENT OF VIRAL DISEASES” (priority 2013, published 2016).

Like-named read-outs stand apart in the source and are kept apart here.

Assay in all cases: microbe, parasite or virus in culture
Type in all cases: cell-based, Hepatitis C virus (HCV)
Holding throughout (conditions): Replicon Assay A
A general note: In antiviral work, replicon cells carry a viral genome segment that copies itself.

Experiment [1] has as its system HCV replicon 1AY93H. Put shortly:
(§1)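 Replicon cells were seeded at 2000 cells/well with test compound in 0.5% DMSO and 5% FBS, then harvested on day 3. Replicon RNA was measured by multiplex TaqMan real-time RT-PCR, using cyclophilin RNA as the endogenous control and quantified against standard curves of HCV replicon total RNA.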

Experiment [2] concerns HCV replicon 1A. An outline of the steps: as §1
The subject of experiment [3] is HCV replicon 2B. Put shortly: as §1
[4] abbreviates: Hepatitis C virus, read-out: 1A Y93H IC50, HCV replicon 1A Y93H.
The mark [5] stands for this setting: Hepatitis C virus, HCV replicon 1A.
Setting [6] is: Hepatitis C virus, read-out: 2B IC50, HCV replicon 2B.
Where [7] appears, read: read-out: 1A Y93H IC50, replicon 1AY93H.

As to `COC(=O)N[C@H](C(=O)N1CCC[C@H]1c1nc(-c2cc(F)c3c(c2)OC(c2ccc(C4CC4)s2)n2c-3cc3cc(-c4c[nH]c([C@@H]5C[C@H]6C[C@H]6N5C(=O)[C@@H](NC(=O)OC)[C@@H](C)OC)n4)ccc32)c[nH]1)C(C)C` (mixture of isomers) [Compound 723], the half-maximal inhibitory concentration (IC50) (commonly the point on the concentration scale where inhibition reaches its midpoint) in experiment [1] (setting [4]) came to 0.046 nM; in experiment [2] (setting [5]), 2.7 pM; in experiment [3] (setting [6]) it was 0.08 nM.

On to `CCN(CC)[C@@H](C(=O)N1C[C@H](F)C[C@H]1c1nc(-c2ccc3c(c2)cc2n3C(c3cc(C)c(C)s3)Oc3cc(-c4c[nH]c([C@@H]5C[C@@H](F)CN5C(=O)[C@@H](NC(=O)OC)C(C)C)n4)ccc3-2)c[nH]1)c1ccccc1` (mixture of isomers) [Compound 724], for which the IC50 in experiment [1] (setting [4]) stood at 0.37 nM; in experiment [2] (setting [5]), 63 pM; in experiment [3] (setting [6]) it was 15.3 nM.

Turning to `COC(=O)N[C@H](C(=O)N1C[C@H](F)C[C@H]1c1ncc(-c2ccc3c(c2)OC(c2cc(C)c(C)s2)n2c-3cc3cc(-c4c[nH]c([C@@H]5C[C@@H](F)CN5C(=O)[C@@H](NC(=O)OC)C5CCOCC5)n4)ccc32)[nH]1)C(C)C` (mixture of isomers) [Compound 725], the IC50 came out at 0.058 nM in experiment [1] (setting [4]), 35 pM in experiment [2] (setting [5]) and 0.76 nM in experiment [3] (setting [6]).

In the case of `COC(=O)N[C@H](C(=O)N1CCC[C@H]1c1nc(-c2ccc3c(c2)OC(c2cc4sccc4s2)n2c-3cc3cc(-c4c[nH]c([C@@H]5C[C@H]6C[C@H]6N5C(=O)[C@@H](NC(=O)OC)C5CCOCC5)n4)ccc32)c[nH]1)C(C)C` (mixture of isomers) [Compound 726], the IC50 turned out to be 0.047 nM in experiment [1] (setting [4]), 6.3 pM in experiment [2] (setting [5]) and 0.16 nM in experiment [3] (setting [6]).

On to `COC(=O)N[C@H](C(=O)N1CCC[C@H]1c1nc(-c2ccc3c(c2)OC(c2ccc(Cl)s2)n2c-3cc3cc(-c4c[nH]c([C@@H]5CCCN5C(=O)[C@@H](NC(=O)OC)C5CCOCC5)n4)ccc32)c[nH]1)C1CCOCC1` (mixture of isomers) [Compound 727], for which the concentration for half-maximal inhibition (IC50) worked out at 0.056 nM in experiment [1] (setting [4]), 24 pM in experiment [2] (setting [5]) and 0.027 nM in experiment [3] (setting [6]).

As for `COC(=O)N[C@H](C(=O)N1CCC[C@H]1c1nc(-c2ccc3c(c2)OC(c2ccc(C4CC4)s2)n2c-3cc3cc(-c4c[nH]c([C@@H]5CCCN5C(=O)[C@@H](NC(=O)OC)C5CCOCC5)n4)ccc32)c[nH]1)C1CCOCC1` (mixture of isomers) [Compound 728], the IC50 in experiment [1] (setting [4]) came out at 0.02 nM; in experiment [2] (setting [5]), 22 pM; in experiment [3] (setting [6]), 0.022 nM.

On to `CCN(CC)[C@@H](C(=O)N1C[C@H](F)C[C@H]1c1nc(-c2ccc3c(c2)OC(c2ccc(Cl)s2)n2c-3cc3cc(-c4c[nH]c([C@@H]5C[C@@H](F)CN5C(=O)[C@@H](c5ccccc5)N(CC)CC)n4)ccc32)c[nH]1)c1ccccc1` (mixture of isomers) [Compound 732], for which the IC50 in experiment [1] (setting [4]) was 0.4 nM; in experiment [2] (setting [5]), 160 pM; in experiment [3] (setting [6]), 12.5 nM.

In the case of `CCN(CC)[C@@H](C(=O)N1C[C@H](F)C[C@H]1c1nc(-c2ccc3c(c2)OC(c2ccc(C4CC4)s2)n2c-3cc3cc(-c4c[nH]c([C@@H]5C[C@@H](F)CN5C(=O)[C@@H](c5ccccc5)N(CC)CC)n4)ccc32)c[nH]1)c1ccccc1` (mixture of isomers) [Compound 733], the results for the IC50 in experiment [1] (setting [4]), in experiment [2] (setting [5]) and in experiment [3] (setting [6]) were 0.35 nM, 45 pM and 0.063 nM, respectively.

As for `COC(=O)N[C@H](C(=O)N1C[C@H](F)C[C@H]1c1ncc(-c2ccc3c(c2)OC(c2ccc(C4CC4)s2)n2c-3cc3cc(-c4cnc([C@@H]5C[C@@H](F)CN5C(=O)[C@@H](NC(=O)OC)C5CCOCC5)[nH]4)ccc32)[nH]1)C1CCOCC1` (mixture of isomers) [Compound 734], the IC50 was determined as 0.24 nM in experiment [1] (setting [4]), 420 pM in experiment [2] (setting [5]) and 116 nM in experiment [3] (setting [6]).

Regarding `COC(=O)N[C@H](C(=O)N1C[C@H](F)C[C@H]1c1ncc(-c2ccc3c(c2)OC(c2cc4ccccc4s2)n2c-3cc3cc(-c4cnc([C@@H]5C[C@@H](F)CN5C(=O)[C@@H](NC(=O)OC)C5CCOCC5)[nH]4)ccc32)[nH]1)C(C)C` (mixture of isomers) [Compound 807], the IC50 stood at 0.025 nM in experiment [1] (setting [4]), 3 pM in experiment [2] (setting [5]) and 2 nM in experiment [3] (setting [6]).

Turning to `CCN(CC)[C@@H](C(=O)N1CCC[C@H]1c1ncc(-c2ccc3c(c2)cc2n3C(c3cc4ccccc4s3)Oc3cc(-c4cnc([C@@H]5C[C@@H](F)CN5C(=O)[C@@H](c5ccccc5)N(CC)CC)[nH]4)ccc3-2)[nH]1)c1ccccc1` (mixture of isomers) [Compound 808], the IC50 in experiment [1] (setting [4]) is 1.2 nM; in experiment [2] (setting [5]), 26 pM; in experiment [3] (setting [6]), 0.32 nM.

`COC(=O)N[C@H](C(=O)N1CCC[C@H]1c1ncc(-c2cc(C)c3c(c2)OC(c2cc(C)c(C)s2)n2c-3cc3cc(-c4cnc([C@@H]5CCCN5C(=O)[C@@H](NC(=O)OC)C(C)C)[nH]4)ccc32)[nH]1)C(C)C` (single isomer, unassigned) [Compound 15]: the IC50 in experiment [1] (setting [7]) amounted to 18.1 nM; in experiment [2] (Hepatitis C virus, replicon 1A), 2.9 pM; in experiment [3] (read-out: 2B IC50, replicon 2B), 2.28 nM.

Turning to `COC(=O)N[C@H](C(=O)N1CCC[C@H]1c1ncc(-c2cc(C)c3c(c2)OC(c2cc(C)c(C)s2)n2c-3cc3cc(-c4cnc([C@@H]5CCCN5C(=O)[C@@H](NC(=O)OC)C(C)C)[nH]4)ccc32)[nH]1)C(C)C` (single isomer, unassigned) [Compound 16], the 50% inhibitory concentration (IC50) in experiment [1] (setting [7]) amounted to 0.49 nM; in experiment [2] (replicon 1A), 2.4 pM; in experiment [3] (read-out: 2B IC50, replicon 2B) it was 0.171 nM.

Consider `COC(=O)N[C@H](C(=O)N1CCC[C@H]1c1ncc(-c2cc(F)c3c(c2)OC(c2ccc(OC)s2)n2c-3cc3cc(-c4cnc([C@@H]5CCCN5C(=O)[C@@H](NC(=O)OC)C(C)C)[nH]4)ccc32)[nH]1)C(C)C` (single isomer, unassigned) [Compound 19], for which the IC50 is 0.5 nM in experiment [1] (setting [7]); 1.6 pM in experiment [2] (Hepatitis C virus, replicon 1A); 1.88 nM in experiment [3] (read-out: 2B IC50, replicon 2B).

In the case of `COC(=O)N[C@H](C(=O)N1CCC[C@H]1c1ncc(-c2ccc3c(c2)OC(c2ccc(C4CC4)s2)n2c-3c(C)c3cc(-c4cnc([C@@H]5CCCN5C(=O)[C@@H](NC(=O)OC)C(C)C)[nH]4)ccc32)[nH]1)C(C)C` (single isomer, unassigned) [Compound 21], the IC50 came to 0.22 nM in experiment [1] (setting [7]); 1.9 pM in experiment [2] (Hepatitis C virus, replicon 1A); 0.26 nM in experiment [3] (read-out: 2B IC50, replicon 2B).

`COC(=O)N[C@H](C(=O)N1CCC[C@H]1c1ncc(-c2ccc3c(c2)OC(c2ccc(C4CC4)s2)n2c-3c(C)c3cc(-c4cnc([C@@H]5CCCN5C(=O)[C@@H](NC(=O)OC)C(C)C)[nH]4)ccc32)[nH]1)C(C)C` (single isomer, unassigned) [Compound 22]: the IC50 in experiment [1] (setting [7]) was determined as 1.38 nM; in experiment [2] (replicon 1A), 2 pM; in experiment [3] (read-out: 2B IC50, replicon 2B) it was 1.84 nM.

Consider `COC(=O)N[C@H](C(=O)N1CCC[C@H]1c1ncc(-c2cc(F)c3c(c2)OC(c2sccc2C2CC2)n2c-3cc3cc(-c4cnc([C@@H]5CCCN5C(=O)[C@@H](NC(=O)OC)C(C)C)[nH]4)ccc32)[nH]1)C(C)C` (single isomer, unassigned) [Compound 25], for which the IC50 in experiment [1] (Hepatitis C virus, read-out: 1A Y93H IC50 (nM), replicon 1AY93H) was found to be 14.4 nM; in experiment [2] (Hepatitis C virus, replicon 1A), 4.3 pM; in experiment [3] (Hepatitis C virus, read-out: 2B IC50 (nM), replicon 2B), 15.1 nM.

In the case of `[2H]C(C)(C)C(NC(=O)OC)C(=O)N1CCC[C@H]1c1ncc(-c2cc(F)c3c(c2)OC(c2ccc(C4CC4)s2)n2c-3cc3cc(-c4cnc([C@@H]5CCCN5C(=O)[C@@H](NC(=O)OC)C(C)C)[nH]4)ccc32)[nH]1` (single isomer, unassigned) [Compound 29], the IC50 worked out at 1.32 nM in experiment [1] (setting [7]); 2.4 pM in experiment [2] (replicon 1A); 1.98 nM in experiment [3] (read-out: 2B IC50, replicon 2B).
